{"source": "patent US20110117627A1", "about": "“REGULATION OF APOPTOSIS BY NEURAL SPECIFIC SPLICE VARIANTS OF IG20” (The Board of Trustees of the University of Illinois, priority 2008, published 2011)", "assay_type_in_all_cases": "cell-based, human", "key": {"SK-N-SH cells": {"system": "SK-N-SH cells", "assay": "Caspase-8 inhibition, apoptosis by Annexin V-PE/7-AAD", "details": "40 μM and 80 μM for two days", "description": "FIG. 6. Down modulation of KIAA0358 or selective expression of IG20-SV4 enhances apoptosis through expression/activation of caspase-8 in SK-N-SH cells. (A) Effects of cycloheximide on expression/activation of caspase-8. Three days post-transduction with shRNA-expressing virus, SK-N-SH cells were treated with 10 μg/ml cycloheximde (a protein synthesis inhibitor) for two days. Whole cell lysates were subjected to western blot analysis. (B) Caspase-8 reporter assay. SK-N-SH cells were cotransfected with pGL4.17-caspase-8 promoter vector, pSV40-Renilla luciferase vector and pEYFP-C1/or pEYFP-IG20-SV4 using Lipofectamine2000, 48 hrs later, cells were collected and analyzed for luciferase activity with the Dual-Luciferase Reporter Assay System (Promega). (C) and (D) Effects of caspase-8 inhibition. Three days post-transduction with shRNA-expressing virus, SK-N-SH cells were treated with 40 μM and 80 μM of Z-1ETD-FMK (a caspase 8 inhibitor) for two days. Collected cells were either subjected to Annexin V-PE/7-AAD stain for FACS analysis (C) or western blot analysis (D). (C) Percentage apoptosis in cells transduced with different shRNAs in the presence or absence of the caspase inhibitor. The P-value was **P<0.01 for Z-IETD-FMK treated vs untreated. […] Representative data are from three independent experiments.\nCaspase-8 inhibition. […]"}, "caspase-8 [1]": {"system": "caspase-8", "assay": "Caspase-8 inhibition, western blot", "details": "SK-N-SH cells, 40 μM and 80 μM", "description": "(§1) FIG. 6. Down modulation of KIAA0358 or selective expression of IG20-SV4 enhances apoptosis through expression/activation of caspase-8 in SK-N-SH cells. (A) Effects of cycloheximide on expression/activation of caspase-8. Three days post-transduction with shRNA-expressing virus, SK-N-SH cells were treated with 10 μg/ml cycloheximde (a protein synthesis inhibitor) for two days. Whole cell lysates were subjected to western blot analysis. (B) Caspase-8 reporter assay. SK-N-SH cells were cotransfected with pGL4.17-caspase-8 promoter vector, pSV40-Renilla luciferase vector and pEYFP-C1/or pEYFP-IG20-SV4 using Lipofectamine2000, 48 hrs later, cells were collected and analyzed for luciferase activity with the Dual-Luciferase Reporter Assay System (Promega). (C) and (D) Effects of caspase-8 inhibition. Three days post-transduction with shRNA-expressing virus, SK-N-SH cells were treated with 40 μM and 80 μM of Z-1ETD-FMK (a caspase 8 inhibitor) for two days. […]\n(§2) Western Blot Analysis. […] The protein content was determined using a dye-binding microassay (Bio-Rad), and after boiling the samples for 2 min in a 1× SDS protein sample buffer, 20 μg of protein per lane was loaded and separated on 10% SDS-polyacrylamide gel. […] Proteins were detected using an enhanced chemiluminescence plus western blotting detection system (Amersham, UK). […]"}, "caspase-8 [2]": {"system": "caspase-8", "assay": "Cycloheximide treatment of transduced SK-N-SH cells, western blot of caspase-8", "details": "10 μg/mL cycloheximide", "description": "as §1, with “(Promega).” for “(Promega). (C) and (D) Effects of caspase-8 inhibition. Three days post-transduction with shRNA-expressing virus, SK-N-SH cells were treated with 40 μM and 80 μM of Z-1ETD-FMK (a caspase 8 inhibitor) for two days.”\nTo determine whether the increased apoptosis induced utilizing 34+13L shRNA was due to modulation of the expression of caspase-8, the expression of caspase-8 transcripts was measured in SK-N-SH cells treated with the different combinations of siRNAs. […]\nas §2"}}, "note": "Entries after “also recorded” stand apart in the source; their conditions may differ. Where a SMILES comes first, the peptide text is derived from it. The star is where a group is joined. Cbz = O=C(OCc1ccccc1)*; CH2F = FC*"}
{"smiles": "CC[C@H](C)[C@H](NC(=O)OCc1ccccc1)C(=O)N[C@@H](CCC(=O)OC)C(=O)N[C@H](C(=O)N[C@@H](CC(=O)OC)C(=O)CF)[C@@H](C)O", "note": "[Z-IETD-FMK] (Cbz-IE(OMe)TD(OMe)-CH2F)", "values": [{"measurement": "apoptosis in cells treated with shRNA targeting 34E", "setting": "SK-N-SH cells", "value": "did not significantly affect apoptosis"}, {"measurement": "apoptotic effect caused by down-modulation of KIAA0358", "setting": "SK-N-SH cells", "value": "significantly attenuated the apoptotic effect"}, {"measurement": "effect on caspase-8 expression (western blot)", "setting": "caspase-8 [1]", "value": "inhibitory effect"}]}
{"smiles": "C[C@@H]1C[C@@H]([C@H](O)CC2CC(=O)NC(=O)C2)C(=O)[C@@H](C)C1", "note": "[cycloheximide]", "values": [{"measurement": "expression of caspase-8 protein", "setting": "caspase-8 [2]", "value": "inhibited the expression of caspase-8 protein; also recorded: the induced caspase-8 was inhibited"}]}
